60 compounds from US7504400B2, “MTP inhibiting aryl piperydines or piperazines substituted with 5-membered heterocycles” (Janssen Pharmaceutica N.V., priority 2004, dated 2009) can be followed below.

In this assay the test system is Secretion of ApoB. Put plainly: Quantification of the secretion of ApoB in HepG2 cells. It is filed as cell-based. To be noted: Homo sapiens, HepG2, 24 h, 24 hours of incubation with test compound, immunoprecipitation of apoB from medium, read-out: pIC50 value (=-log IC50 value), secretion of ApoB (converted). How it is done: HepG2 cells were cultured in 24-well plates in MEM Rega 3 containing 10% fetal calf serum. At 70% confluency, the medium was changed and the test compound or carrier (DMSO, 0.4% final concentration) was added. After 24 hours of incubation, the medium was transferred to Eppendorf tubes and cleared by centrifugation. A sheep antibody directed against either apoB was added to the supernatant and the mixture was kept at 8° C. for 24 hours. Then, rabbit anti-sheep antibody was added and the immune complex was allowed to precipitate for 24 hours at 8° C. The immunoprecipitate was pelleted by centrifugation for 25 minutes at 1320 g and washed twice with a buffer containing 40 mM Mops, 40 mM NaH2PO4, 100 mM NaF, 0.2 mM DTT, 5 mM EDTA, 5 mM EGTA, 1% Triton-X-100, 0.5% sodium deoxycholate (DOC), 0.1% SDS, 0.2 μM leupeptin and 0.2 μM PMSF. Radioactivity in the pellet was quantified by liquid scintillation-counting. The IC50 values are usually converted to pIC50 values (=−log IC50 value) for ease of use.
Take `CCOC(=O)CC[C@H](NC(=O)CC1CCN(c2ccc(-n3cnn(C(C)c4ccccc4)c3=O)cc2)CC1)C(=O)OCC` (stereo partly drawn) [Compound 397]: the IC50 (as a rule, the concentration at which inhibition is half-maximal) is 316 to 3160 nM.
With `CCOC(=O)[C@H](c1ccccc1)N1CCN(c2ccc(-n3ccn([C@H](C)c4ccccc4F)c3=O)cc2)CC1` (stereo in doubt) [Compound 271], the IC50 was 31.6 to 316 nM.
With `COC(=O)C(CCN1CCN(c2ccc(-n3cnn(C(C)C)c3=O)cc2)CC1)c1ccccc1` (stereo not drawn) [Compound 169], the IC50 was 316 to 3160 nM.
Turning to `CCOC(=O)c1csc(NC(=O)C(c2ccccc2)N2CCN(c3ccc(-n4cnn(C(C)C)c4=O)cc3)CC2)n1` (stereo not drawn) [Compound 357], the IC50 is 316 to 3160 nM.
On to `CCOC(=O)[C@@H](NC(=O)CC1CCN(c2ccc(-n3cnn(C(C)c4ccccc4)c3=O)cc2)CC1)c1ccccc1` (stereo partly drawn) [Compound 395], for which the IC50 is 316 to 3160 nM.
In the case of `CC(C)n1ncn(-c2ccc(N3CCN(C(C(=O)NCc4ccco4)c4ccccc4)CC3)cc2)c1=O` (stereo not drawn) [Compound 65] it was 316 to 3160 nM; in that of `CCOC(=O)C(c1ccccc1)C1CCN(c2ccc(-n3ccn([C@@H](C)c4ccc(F)cc4)c3=O)cc2)CC1` (stereo partly drawn) [Compound 243], 316 to 3160 nM.
In the case of `CC(C)n1ncn(-c2ccc(C3CCN(C(C(=O)N(C)C)c4ccccc4)CC3)cc2)c1=O` (stereo not drawn) [Compound 144] it was 316 to 3160 nM; in that of `CCCn1ncn(-c2ccc(N3CCC(C(C(=O)NC(C)C)c4ccccc4)CC3)cc2)c1=O` (stereo not drawn) [Compound 87], 316 to 3160 nM; in that of `CCOC(=O)C(c1ccccc1)N1CCN(c2ccc(-n3ccn(C(C)C)c3=O)cc2)CC1` (stereo not drawn) [Compound 189], 316 to 3160 nM.
Then `CC(C)n1cnn(-c2ccc(N3CCN(C(C(=O)NCc4ccccc4)c4ccccc4)CC3)cc2)c1=O` (stereo not drawn) [Compound 123], with 31.6 to 316 nM; and `COC(=O)C(c1ccccc1)N1CCN(c2ccc(-n3cnn(C(C)c4ccccc4)c3=O)cc2)CC1` (stereo not drawn) [Compound 204], with 31.6 to 316 nM.
Turning to `CCOC(=O)C(c1ccccc1)N1CCC(c2ccc(-n3ccn([C@H](C)c4ccc(C(F)(F)F)cc4)c3=O)cc2)CC1` (stereo partly drawn) [Compound 277], the IC50 is 31.6 to 316 nM.
In the case of `CC(C)n1ncn(-c2ccc(N3CCN(C(C(=O)NCCNc4cccc5ccccc45)c4ccccc4)CC3)cc2)c1=O` (stereo not drawn) [Compound 67] it was 316 to 3160 nM; in that of `COC(=O)C(c1ccccc1)N1CCN(c2ccc(-n3nc(C)n(C(C)C)c3=O)cc2)CC1` (stereo not drawn) [Compound 159], 316 to 3160 nM.
Regarding `CCCNC(=O)C(c1ccccc1)C1CCN(c2ccc(-n3cnn(CC(C)C)c3=O)cc2)CC1` (stereo not drawn) [Compound 153], the IC50 was 31.6 to 316 nM.
In the case of `CC(C)n1ncn(-c2ccc(N3CCN(C(C(=O)NCc4cccs4)c4ccccc4)CC3)cc2)c1=O` (stereo not drawn) [Compound 75] it was 316 to 3160 nM; in that of `O=C(Nc1ccc2c(c1)CCC2)C(c1ccccc1)C1CCN(c2ccc(-n3nc4ccccn4c3=O)cc2)CC1` (stereo not drawn) [Compound 211], < 31.6 nM; in that of `COC(=O)c1ccc(CNC(=O)C(c2ccccc2)N2CCC(c3ccc(-n4cnn(C(C)C)c4=O)cc3)CC2)cc1C` (stereo not drawn) [Compound 288], 31.6 to 316 nM.
As for `CC(C)n1ncn(-c2ccc(N3CCN(C(C(=O)Nc4ccc5c(c4)-c4ccccc4C5)c4ccccc4)CC3)cc2)c1=O` (stereo not drawn) [Compound 197], the IC50 was 31.6 to 316 nM.
In the case of `CC(C)NC(=O)C(CN1CCN(c2ccc(-n3cnn(C(C)C)c3=O)cc2)CC1)c1ccccc1` (stereo not drawn) [Compound 74] it was 31.6 to 316 nM; in that of `CCOC(=O)C(c1ccccc1)C1CCN(c2ccc(-n3ccn([C@H](C)c4ccc5ccccc5c4)c3=O)cc2)CC1` (stereo partly drawn) [Compound 252], 316 to 3160 nM; in that of `CCNC(=O)C(c1ccccc1)N1CCN(c2ccc(-n3nc(C)n(C(C)C)c3=O)cc2)CC1` (stereo not drawn) [Compound 39], 316 to 3160 nM.
As for `COC(=O)C(c1ccc(C)cc1)N1CCN(c2ccc(-n3cnn(C(C)C)c3=O)cc2)CC1` (stereo not drawn) [Compound 330], the IC50 was 316 to 3160 nM.
In the case of `CCOC(=O)C(c1ccccc1)N1CCC(c2ccc(-n3ccn([C@H](C)c4ccc(Br)cc4)c3=O)cc2)CC1` (stereo partly drawn) [Compound 229] it was 31.6 to 316 nM.
`CCOC(=O)CC1CCN(c2ccc(-n3cnn(C(C)C)c3=O)cc2)CC1` [Compound 385]: the IC50 is 316 to 3160 nM.
On to `CC(C)n1cnn(-c2ccc(N3CCN(C(C(=O)Nc4ccc5c(c4)CCC5)c4ccccc4)CC3)cc2)c1=O` (stereo not drawn) [Compound 191], for which the IC50 is 31.6 to 316 nM.
Take `COC(=O)C(c1ccccc1)N1CCN(c2ccc(-n3cnn(C(C)C)c3=O)cn2)CC1` (stereo not drawn) [Compound 146]: the IC50 was 316 to 3160 nM.
For `CCCN(CCC)C(=O)C(CCN1CCN(c2ccc(-n3ncn(C(C)C)c3=O)cc2)CC1)c1ccccc1` (stereo not drawn) [Compound 3], the IC50 is 31.6 to 316 nM.
As to `CCCCCNC(=O)C(c1ccccc1)N1CCN(c2ccc(-n3ncn(C(C)C)c3=O)cc2)CC1` (stereo not drawn) [Compound 120], the IC50 is 316 to 3160 nM.
In the case of `CCOC(=O)C(c1ccccc1)N1CCC(c2ccc(-n3ccn([C@H](C)c4ccc(F)cc4)c3=O)cc2)CC1` (stereo partly drawn) [Compound 224] it was 31.6 to 316 nM; in that of `CCOC(=O)CC(NC(=O)CC1CCN(c2ccc(-n3cnn(C(C)c4ccccc4)c3=O)cc2)CC1)c1ccc2c(c1)OCO2` (stereo not drawn) [Compound 404], 316 to 3160 nM.
Then `CC(C)n1ncn(-c2ccc(N3CCN(C(C(=O)Nc4ccc5c(c4)CCC5)c4ccccc4)CC3)cc2)c1=O` (stereo not drawn) [Compound 11], with < 31.6 nM; and `CCNC(=O)C(c1ccccc1)N1CCC(c2ccc(-n3cnn(C(C)C)c3=O)cc2)CC1` (stereo not drawn) [Compound 139], with 31.6 to 316 nM.
In the case of `C=CCNC(=O)C(c1ccccc1)N1CCN(c2ccc(-n3ncn(C(C)C)c3=O)cc2)CC1` (stereo not drawn) [Compound 116] it was 316 to 3160 nM; in that of `CC(C)n1ncn(-c2ccc(N3CCN(C(C(=O)NCC(F)(F)F)c4ccccc4)CC3)nc2)c1=O` (stereo not drawn) [Compound 170], 316 to 3160 nM; in that of `COC(CNC(=O)C(CN1CCN(c2ccc(-n3cnn(C(C)C)c3=O)cc2)CC1)c1ccccc1)OC` (stereo not drawn) [Compound 108], 316 to 3160 nM.
Regarding `CCn1ncn(-c2ccc(N3CCC(C(C(=O)Nc4ccccc4)c4ccccc4)CC3)cc2)c1=O` (stereo not drawn) [Compound 53], the 50% inhibitory concentration (IC50) was 316 to 3160 nM.
Regarding `COCCNC(=O)C(c1ccccc1)N1CCN(c2ccc(-n3ncn(C(C)C)c3=O)cc2)CC1` (stereo not drawn) [Compound 117], the IC50 is 316 to 3160 nM.
Then `C=CCNC(=O)C(c1ccccc1)N1CCN(c2ccc(-n3cnn(C(C)CC)c3=O)cc2)CC1` (stereo not drawn) [Compound 95], with 31.6 to 316 nM; and `COC(=O)c1ccc(CNC(=O)C(c2ccccc2)N2CCN(c3ccc(-n4ccn(C(C)C)c4=O)c(C)c3)CC2)cc1C` (stereo not drawn) [Compound 286], with 31.6 to 316 nM; and `CCOC(=O)C(c1ccccc1)N1CCC(c2ccc(-n3ccn([C@@H](C)c4ccc(Br)cc4)c3=O)cc2)CC1` (stereo partly drawn) [Compound 230], with 316 to 3160 nM.
In the case of `CCCCCn1ncn(-c2ccc(N3CCC(C(C(=O)NCc4ccccc4)c4ccccc4)CC3)cc2)c1=O` (stereo not drawn) [Compound 157] it was 31.6 to 316 nM.
Then `CCCCCNC(=O)C(CN1CCN(c2ccc(-n3cnn(C(C)C)c3=O)cc2)CC1)c1ccccc1` (stereo not drawn) [Compound 109], with 31.6 to 316 nM.
For the compound `CCOC(=O)C(c1ccccc1)N1CCN(c2ccc(-n3ccn(C(C)c4cc(F)ccc4F)c3=O)cc2)CC1` (stereo not drawn) [Compound 334], the IC50 was 31.6 to 316 nM.
Consider `CC(C)Cn1ncn(-c2ccc(N3CCC(C(C(=O)NC(C)C)c4ccccc4)CC3)cc2)c1=O` (stereo not drawn) [Compound 90], for which the IC50 was 316 to 3160 nM.
Then `CNC(=O)C(c1ccccc1)N1CCC(c2ccc(-n3cnn(C(C)C)c3=O)cc2)CC1` (stereo not drawn) [Compound 142], with 31.6 to 316 nM; and `CCOC(=O)C(c1ccccc1)N1CCC(c2ccc(-n3ccn([C@H](C)c4cccc5ccccc45)c3=O)cc2)CC1` (stereo partly drawn) [Compound 225], with 31.6 to 316 nM; and `CC(C)n1ncn(-c2ccc(N3CCN(C(C(=O)NCCCc4ccccc4)c4ccccc4)CC3)cc2)c1=O` (stereo not drawn) [Compound 85], with 31.6 to 316 nM.
Regarding `COC(=O)CC1CCN(c2ccc(-n3ccn(C(C)c4ccccc4)c3=O)cc2)CC1` (stereo not drawn) [Compound 264], the IC50 is 316 to 3160 nM.
On to `CC(C)n1ncn(-c2ccc(N3CCN(C(C(N)=O)c4ccccc4)CC3)cc2)c1=O` (stereo not drawn) [Compound 145], for which the IC50 was 316 to 3160 nM.
Then `CC(C)n1ncn(-c2ccc(N3CCN(C(C(=O)Nc4ccncc4)c4ccccc4)CC3)cc2)c1=O` (stereo not drawn) [Compound 10], with 316 to 3160 nM; and `CCOC(=O)C(c1ccccc1)C1CCN(c2ccc(-n3ccn([C@@H](C)c4cccc5ccccc45)c3=O)cc2)CC1` (stereo partly drawn) [Compound 246], with 316 to 3160 nM.
Then `CCCNC(=O)C(c1ccccc1)C1CCN(c2ccc(-n3cnn(CC)c3=O)cc2)CC1` (stereo not drawn) [Compound 148], with 316 to 3160 nM; and `C=CCNC(=O)C(CN1CCN(c2ccc(-n3cnn(C(C)C)c3=O)cc2)CC1)c1ccccc1` (stereo not drawn) [Compound 103], with 31.6 to 316 nM; and `CCOC(=O)c1cc(NC(=O)CC2CCN(c3ccc(-n4cnn(C(C)c5ccccc5)c4=O)cc3)CC2)ccc1C` (stereo not drawn) [Compound 371], with 31.6 to 316 nM.
Regarding `CC(C)n1ncn(-c2ccc(N3CCN(C(C(=O)Nc4cccnc4)c4ccccc4)CC3)cc2)c1=O` (stereo not drawn) [Compound 16], the IC50 is 316 to 3160 nM.
As to `CCOC(=O)c1cc(CNC(=O)CC2CCN(c3ccc(-n4cnn(C(C)C)c4=O)cc3)CC2)ccc1C` [Compound 382], the IC50 was 31.6 to 316 nM.
Turning to `COC(=O)c1ccccc1CNC(=O)C(c1ccccc1)N1CCN(c2ccc(-n3ccn(C(C)C)c3=O)c(C)c2)CC1` (stereo not drawn) [Compound 289], the IC50 is 31.6 to 316 nM.
As for `CCOC(=O)C(c1ccccc1)N1CCC(c2ccc(-n3ccn([C@H](C)c4ccccc4)c3=O)cc2)CC1` (stereo partly drawn) [Compound 227], the IC50 was 31.6 to 316 nM.
